# Source: patent US5736510A, “Antibiotics 10381v, w, x,y, z1, z2, pre-b and t” (priority 1996, dated 1998)
# “Also recorded” adds a separate entry of the source. Read-outs that look alike come from different tables or passages of the source.
# How the values were obtained:
# Type in all cases: cell-based
# R. flavefaciens = details: for M.I.C.: Table III, mass basis, no correction for purity; for Minimal Inhibitory Concentration (bioactivity data): Table IV (separate study)
# R. amylophilus = details: strain H18; for Minimal Inhibitory Concentration (bioactivity data): Table IV (separate study)
# P. ruminicola = details: strain 118B; for Minimal Inhibitory Concentration (bioactivity data): Table IV (separate study)
# S. ruminantium = details: for M.I.C.: Table III, mass basis, no correction for purity; for Minimal Inhibitory Concentration (bioactivity data): Table IV (separate study)
# M. elsdenii = details: strain B159; for Minimal Inhibitory Concentration (bioactivity data): Table IV (separate study)
# [1] = system: anaerobic bacteria which normally inhabit the gut of poultry, swine or cattle; experiment: in vitro MIC assay, overall comparison of components across the test organisms; details: for in vitro activity ranking of the individual components: conclusion from Tables III and IV
# Procedure: (§1) The assay measures the ability of a compound to inhibit the growth of certain types of anaerobic bacteria which normally inhabit the gut of poultry, swine or cattle.
# (§2) Two mg/ml solutions of the drugs to be tested are made in 10% v/v ethanol/water. This stock is then diluted to one mg per ml and then further diluted through a series of ten-two fold dilutions. At each concentration an aliquot is placed in a sterile petri plate. Nine volumes of molten agar are then added to each plate, mixed and allowed to harden at room temperature. These plates are then transferred to a Coy chamber and allowed to dry and equilibrate with the oxygen free atmosphere.
# (§3) Organisms used for MIC testing are inoculated into broth media, and incubated 18-24 h at 39° C. prior to use. The cultures are then diluted to equal the turbidity of a 0.5 MacFarland barium sulfate standard, except for the porcine isolates P108-3C1, P105-1C3 and P105-1C4 which are diluted 1:1. All inoculations and dilutions are performed in the anaerobic chamber using broth media and syringe transfer through the butyl robber stoppers.
# (§4) Freshly prepared and diluted cultures are loaded into the wells of a Steers replicator device. This apparatus can dispense ca 10 μl of each of 32 cultures onto the surface of the preincubated agar plates. One hour after the inoculation, the inoculum will have been absorbed and the plates are inverted and incubated at 38°-39° C. for 48 h. Plates are then removed from the chamber and the MIC for the test compounds determined. MIC's are reported as the lowest concentration of a compound which prevented detectable growth of a test organism on the agar plates. […] Thus, each set of test plates yields individual MIC values for each of the 32 test organisms.
# S. faecalis = details: for M.I.C.: Table III, mass basis, no correction for purity; for Minimal Inhibitory Concentration (bioactivity data): Table IV (separate study)
# L. multiparus = details: strain 40; for Minimal Inhibitory Concentration (bioactivity data): Table IV (separate study)
# E. lentum = details: strain L-34; Table IV (separate study)
# B. fibrisolvens = details: for M.I.C.: Table III, mass basis, no correction for purity; for Minimal Inhibitory Concentration (bioactivity data): Table IV (separate study)
# E. ruminantium = details: strain GA195; for Minimal Inhibitory Concentration (bioactivity data): Table IV (separate study)
# B. thetaiotaomicron = details: strain UC9014; for Minimal Inhibitory Concentration (bioactivity data): Table IV (separate study)
# Procedure: as §1, §2, §3, §4
# F. necrophorum = details: for M.I.C.: Table III, mass basis, no correction for purity; for Minimal Inhibitory Concentration (bioactivity data): Table IV (separate study)
# B. fragilis = details: strain UC9370; for Minimal Inhibitory Concentration (bioactivity data): Table IV (separate study)
# S. bovis = details: strain JB1; for Minimal Inhibitory Concentration (bioactivity data): Table IV (separate study)
# C. perfringens = system: C. perfringens; design: Minimal Inhibitory Concentration (bioactivity data): unit not given here; details: for M.I.C.: Table III, mass basis, no correction for purity; for Minimal Inhibitory Concentration (bioactivity data): Table IV (separate study)
# S. hyodysenteriae = system: S. hyodysenteriae; design: unit not given here; details: Table IV (separate study)
# Procedure: as §1, §2, §3, §4
# [2] = Table III, mass basis, no correction for purity
compound,measurement,setting,value
"C=C(NC(=O)c1ccc2c(n1)-c1coc(n1)C(=C)NC(=O)C(=C)NC(=O)c1nc(oc1C)C(=CC)NC(=O)c1csc(n1)C(OC)NC(=O)c1nc(oc1C)C(=CC(C)O)NC(=O)C(C(C)O)NC(=O)c1csc-2n1)C(N)=O (stereo not shown) [Antibiotic 10381y, 52-de[1-[[[1-(aminocarbonyl)ethenyl]amino]carbonyl]ethenyl]-sulfomycin I]",M.I.C.,R. flavefaciens; strain C94,6.3 µg/mL
same,Minimal Inhibitory Concentration (bioactivity data),R. flavefaciens; strain C94,0.8
same,M.I.C.,R. flavefaciens; strain FD1,< 0.2 µg/mL
same,Minimal Inhibitory Concentration (bioactivity data),R. flavefaciens; strain FD1,0.4
same,M.I.C.,R. amylophilus; [2],100.0 µg/mL
same,Minimal Inhibitory Concentration (bioactivity data),R. amylophilus,< 0.2
same,M.I.C.,P. ruminicola; [2],< 0.2 µg/mL
same,Minimal Inhibitory Concentration (bioactivity data),P. ruminicola,< 0.2
same,M.I.C.,S. ruminantium; strain GA31,25.0 µg/mL
same,Minimal Inhibitory Concentration (bioactivity data),S. ruminantium; strain GA31,< 0.2
same,M.I.C.,S. ruminantium; strain GA192,> 100.0 µg/mL
same,Minimal Inhibitory Concentration (bioactivity data),S. ruminantium; strain GA192,< 0.2
same,M.I.C.,M. elsdenii; [2],> 100.0 µg/mL
same,Minimal Inhibitory Concentration (bioactivity data),M. elsdenii,> 100
same,bioactivity relative to the 10381b antibiotic complex or the 10381b (10381b2) component,[1]; against a variety of microorganisms,increased antimicrobial activity; also recorded: about double
same,in vitro activity ranking of the individual components,[1],most active
same,M.I.C.,S. faecalis; strain 71A01,6.3 µg/mL
same,Minimal Inhibitory Concentration (bioactivity data),S. faecalis; strain 71A01,6.3
same,M.I.C.,S. faecalis; strain CCS1-03,1.6 µg/mL
same,Minimal Inhibitory Concentration (bioactivity data),S. faecalis; strain CCS1-03,3.1
same,M.I.C.,S. faecalis; strain P1051C4,1.6 µg/mL
same,Minimal Inhibitory Concentration (bioactivity data),S. faecalis; strain P1051C4,0.8
same,M.I.C.,L. multiparus; [2],< 0.2 µg/mL
same,Minimal Inhibitory Concentration (bioactivity data),L. multiparus,12.5
same,Minimal Inhibitory Concentration (bioactivity data),E. lentum,< 0.2
same,M.I.C.,B. fibrisolvens; strain 49,< 0.2 µg/mL
same,Minimal Inhibitory Concentration (bioactivity data),B. fibrisolvens; strain 49,0.4
same,M.I.C.,B. fibrisolvens; strain D1,< 0.2 µg/mL
same,Minimal Inhibitory Concentration (bioactivity data),B. fibrisolvens; strain D1,< 0.2
same,M.I.C.,E. ruminantium; [2],6.3 µg/mL
same,Minimal Inhibitory Concentration (bioactivity data),E. ruminantium,0.8
same,M.I.C.,B. thetaiotaomicron; [2],< 0.2 µg/mL
same,Minimal Inhibitory Concentration (bioactivity data),B. thetaiotaomicron,50.0
same,M.I.C.,F. necrophorum; strain FN4070,25.0 µg/mL
same,Minimal Inhibitory Concentration (bioactivity data),F. necrophorum; strain FN4070,50.0
same,M.I.C.,F. necrophorum; strain FN5052,25.0 µg/mL
same,Minimal Inhibitory Concentration (bioactivity data),F. necrophorum; strain FN5052,50.0
same,M.I.C.,B. fragilis; [2],1.6 µg/mL
same,Minimal Inhibitory Concentration (bioactivity data),B. fragilis,50.0
same,M.I.C.,S. bovis; [2],0.4 µg/mL
same,Minimal Inhibitory Concentration (bioactivity data),S. bovis,0.8
same,M.I.C.,C. perfringens; strain 71A02,< 0.2 µg/mL
same,Minimal Inhibitory Concentration (bioactivity data),C. perfringens; strain 71A02,< 0.2
same,M.I.C.,C. perfringens; strain A82-1,0.8 µg/mL
same,Minimal Inhibitory Concentration (bioactivity data),C. perfringens; strain A82-1,12.5
same,M.I.C.,C. perfringens; strain A83-3,< 0.2 µg/mL
same,Minimal Inhibitory Concentration (bioactivity data),C. perfringens; strain A83-3,< 0.2
same,M.I.C.,C. perfringens; strain A83-RKP,0.4 µg/mL
same,Minimal Inhibitory Concentration (bioactivity data),C. perfringens; strain A83-RKP,< 0.2
same,M.I.C.,C. perfringens; strain CCS1-11,0.8 µg/mL
same,Minimal Inhibitory Concentration (bioactivity data),C. perfringens; strain CCS1-11,< 0.2
same,M.I.C.,C. perfringens; strain CCS2-09,< 0.2 µg/mL
same,Minimal Inhibitory Concentration (bioactivity data),C. perfringens; strain CCS2-09,< 0.2
same,M.I.C.,C. perfringens; strain P1051C3,12.5 µg/mL
same,Minimal Inhibitory Concentration (bioactivity data),C. perfringens; strain P1051C3,6.3
same,M.I.C.,C. perfringens; strain P1083C1,< 0.2 µg/mL
same,Minimal Inhibitory Concentration (bioactivity data),C. perfringens; strain P1083C1,0.8
same,M.I.C.,C. perfringens; strain RF1B04,< 0.2 µg/mL
same,Minimal Inhibitory Concentration (bioactivity data),C. perfringens; strain RF1B04,< 0.2
same,M.I.C.,C. perfringens; strain UC9452,< 0.2 µg/mL
same,Minimal Inhibitory Concentration (bioactivity data),C. perfringens; strain UC9452,0.8
same,Minimal Inhibitory Concentration (bioactivity data),S. hyodysenteriae; strain 16-4,> 100
same,Minimal Inhibitory Concentration (bioactivity data),S. hyodysenteriae; strain B204,> 100
C=C1NC(=O)c2nc(oc2C)C(=CC)NC(=O)c2csc(n2)C(OC)NC(=O)c2nc(oc2C)C(=CC(C)O)NC(=O)C(C(C)O)NC(=O)c2csc(n2)-c2ccc(C(N)=O)nc2-c2coc(n2)C(=C)NC1=O (stereo not shown) [Antibiotic 10381v],Minimal Inhibitory Concentration (bioactivity data),R. flavefaciens; strain C94,25.0
same,Minimal Inhibitory Concentration (bioactivity data),R. flavefaciens; strain FD1,25.0
same,Minimal Inhibitory Concentration (bioactivity data),R. amylophilus,3.1
same,Minimal Inhibitory Concentration (bioactivity data),P. ruminicola,< 0.2
same,Minimal Inhibitory Concentration (bioactivity data),S. ruminantium; strain GA31,25.0
same,Minimal Inhibitory Concentration (bioactivity data),S. ruminantium; strain GA192,100
same,Minimal Inhibitory Concentration (bioactivity data),M. elsdenii,> 100
same,in vitro activity ranking of the individual components,[1],considerably less active
same,Minimal Inhibitory Concentration (bioactivity data),S. faecalis; strain 71A01,> 100
same,Minimal Inhibitory Concentration (bioactivity data),S. faecalis; strain CCS1-03,> 100
same,Minimal Inhibitory Concentration (bioactivity data),S. faecalis; strain P1051C4,> 100
same,Minimal Inhibitory Concentration (bioactivity data),L. multiparus,> 100
same,Minimal Inhibitory Concentration (bioactivity data),E. lentum,25.0
same,Minimal Inhibitory Concentration (bioactivity data),B. fibrisolvens; strain 49,50.0
same,Minimal Inhibitory Concentration (bioactivity data),B. fibrisolvens; strain D1,25.0
same,Minimal Inhibitory Concentration (bioactivity data),E. ruminantium,12.5
same,Minimal Inhibitory Concentration (bioactivity data),B. thetaiotaomicron,> 100
same,Minimal Inhibitory Concentration (bioactivity data),F. necrophorum; strain FN4070,100
same,Minimal Inhibitory Concentration (bioactivity data),F. necrophorum; strain FN5052,> 100
same,Minimal Inhibitory Concentration (bioactivity data),B. fragilis,> 100
same,Minimal Inhibitory Concentration (bioactivity data),S. bovis,> 100
same,Minimal Inhibitory Concentration (bioactivity data),C. perfringens; strain A82-1,> 100
same,Minimal Inhibitory Concentration (bioactivity data),C. perfringens; strain A83-3,0.8
same,Minimal Inhibitory Concentration (bioactivity data),C. perfringens; strain A83-RKP,1.6
same,Minimal Inhibitory Concentration (bioactivity data),C. perfringens; strain CCS2-09,> 100
same,Minimal Inhibitory Concentration (bioactivity data),C. perfringens; strain P1051C3,100
same,Minimal Inhibitory Concentration (bioactivity data),C. perfringens; strain P1083C1,100
same,Minimal Inhibitory Concentration (bioactivity data),C. perfringens; strain RF1B04,0.8
same,Minimal Inhibitory Concentration (bioactivity data),C. perfringens; strain UC9452,6.3
same,Minimal Inhibitory Concentration (bioactivity data),S. hyodysenteriae; strain 16-4,> 100
same,Minimal Inhibitory Concentration (bioactivity data),S. hyodysenteriae; strain B204,> 100
